Experimental data: patent US12662491B2 (Redona Therapeutics, Inc., priority 2020, dated 2026)

molecular target: T1, Zcchc11 enzyme (Homo sapiens, UniProt Q5TAX3); experiment: TUTase assay (Zcchc11 assay, Lin28a-dependent polyuridylation of pre-let-7); type: biochemical; details: Lin28a-dependent Zcchc11 (Z11) TUTase assay; read-out: Potency Lin28a-dep Z11 IC50
T1 construct: made in house; host or cells: HEK293 cells (Zcchc11); E. coli Rosetta II (LIN28A)
T1 sequence (Q5TAX3 212-1420): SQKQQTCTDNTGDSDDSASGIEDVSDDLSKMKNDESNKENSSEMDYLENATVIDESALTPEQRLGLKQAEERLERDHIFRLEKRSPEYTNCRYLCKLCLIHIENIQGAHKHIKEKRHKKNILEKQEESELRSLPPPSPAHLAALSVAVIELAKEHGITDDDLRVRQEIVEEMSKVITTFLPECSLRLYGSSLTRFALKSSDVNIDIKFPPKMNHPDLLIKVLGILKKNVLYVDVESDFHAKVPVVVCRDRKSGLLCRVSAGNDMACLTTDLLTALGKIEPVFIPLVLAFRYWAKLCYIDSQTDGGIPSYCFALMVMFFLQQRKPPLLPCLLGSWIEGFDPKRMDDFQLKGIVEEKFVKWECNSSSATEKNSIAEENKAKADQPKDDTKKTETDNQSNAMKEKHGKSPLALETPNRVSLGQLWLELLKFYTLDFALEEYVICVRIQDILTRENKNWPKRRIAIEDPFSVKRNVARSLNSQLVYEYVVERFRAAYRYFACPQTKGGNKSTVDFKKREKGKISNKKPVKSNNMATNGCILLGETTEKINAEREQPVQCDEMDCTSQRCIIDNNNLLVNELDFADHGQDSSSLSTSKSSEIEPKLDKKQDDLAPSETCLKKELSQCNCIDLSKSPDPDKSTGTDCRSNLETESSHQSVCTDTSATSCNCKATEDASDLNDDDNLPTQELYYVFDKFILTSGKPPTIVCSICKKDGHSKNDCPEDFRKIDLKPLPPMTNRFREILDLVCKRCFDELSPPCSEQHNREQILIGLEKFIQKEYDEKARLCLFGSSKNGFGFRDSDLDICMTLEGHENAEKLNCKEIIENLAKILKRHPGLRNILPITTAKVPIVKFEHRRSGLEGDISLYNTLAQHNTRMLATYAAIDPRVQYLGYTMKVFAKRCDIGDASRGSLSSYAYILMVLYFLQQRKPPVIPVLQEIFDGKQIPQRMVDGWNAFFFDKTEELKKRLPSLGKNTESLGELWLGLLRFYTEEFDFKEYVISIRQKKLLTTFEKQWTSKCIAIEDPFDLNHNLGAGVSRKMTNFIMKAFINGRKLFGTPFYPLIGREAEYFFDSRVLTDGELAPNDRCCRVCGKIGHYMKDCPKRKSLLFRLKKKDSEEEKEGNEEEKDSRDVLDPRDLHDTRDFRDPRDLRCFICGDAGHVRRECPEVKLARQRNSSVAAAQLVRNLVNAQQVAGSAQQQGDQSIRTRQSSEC
Outline: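 Polyuridylation measured as fluorescein loss when a rhodamine-labelled A20 probe anneals to U-tails added to fluorescein pre-let-7 (2 nM). Reaction: truncated Zcchc11 0.2 nM, E. coli-made LIN28A 10 nM, UTP 5 uM, HEPES pH 7.3, room temperature. Initial rates fitted to four-parameter IC50.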

| Compound | IC50 |
| --- | --- |
| CN(C)C1CN(c2ccc(-n3cc(C(=O)O)c(=O)c4cc(F)c(N5CCC[C@@H]5COc5ncccc5Cl)c(F)c43)cn2)C1 [Example 613] | ≤ 1000 nM |
| COCCN(C)C1CN(c2ccc(-n3cc(C(=O)O)c(=O)c4cc(F)c(N5CCC[C@@H]5COc5ncccc5Cl)cc43)cn2)C1 [Example 614, (R)-7-(2-(((3-chloropyridin-2-yl)oxy)methyl)pyrrolidin-1-yl)-6-fluoro-1-(6-(3-((2-methoxyethyl) (methyl)amino)azetidin-1-yl)pyridin-3-yl)-4-oxo-1,4-dihydroquinoline-3-carboxylic acid] | ≤ 1000 nM |
| CC(C)(C)OC(=O)N1CC(c2ccc(-n3cc(C(=O)O)c(=O)c4cc(Cl)c(N5CCC[C@@H]5COc5ncccc5Cl)cc43)cn2)C1 [Example 615, (R)-1-(6-(1-(tert-butoxycarbonyl)azetidin-3-yl)pyridin-3-yl)-6-chloro-7-(2-(((3-chloropyridin-2-yl)oxy)methyl)pyrrolidin-1-yl)-4-oxo-1,4-dihydroquinoline-3-carboxylic acid] | ≤ 1000 nM |
| Cc1nc2cc(-n3cc(C(=O)O)c(=O)c4cc(Cl)c(N5CCC[C@@H]5COc5ncccc5Cl)cc43)ncc2[nH]1 [Example 616, (R)-6-chloro-7-(2-(((3-chloropyridin-2-yl)oxy)methyl)pyrrolidin-1-yl)-1-(2-methyl-3H-imidazo[4,5-c]pyridin-6-yl)-4-oxo-1,4-dihydroquinoline-3-carboxylic acid] | ≤ 1000 nM |
| CN(C)C1CN(c2ccc(-n3cc(C(=O)O)c(=O)c4cc(Cl)c(N5CCC[C@@H]5CS(=O)(=O)c5ncccc5Cl)cc43)cn2)C1 [Example 618, (R)-6-chloro-7-(2-(((3-chloropyridin-2-yl)sulfonyl)methyl)pyrrolidin-1-yl)-1-(6-(3-(dimethylamino)azetidin-1-yl)pyridin-3-yl)-4-oxo-1,4-dihydroquinoline-3-carboxylic acid] | ≤ 1000 nM |
| CN(C)C1CN(c2ccc(-n3cc(C(=O)O)c(=O)c4cc(Cl)c(N5C6CC6C[C@@H]5COc5ccccn5)cc43)cn2)C1 (stereo partly drawn) [Example 619, 6-chloro-1-(6-(3-(dimethylamino)azetidin-1-yl)pyridin-3-yl)-4-oxo-7-((3R)-3-((pyridin-2-yloxy)methyl)-2-azabicyclo[3.1.0]hexan-2-yl)-1,4-dihydroquinoline-3-carboxylic acid] | ≤ 1000 nM |
| CN(C)C1CN(c2ncc(-n3cc(C(=O)O)c(=O)c4cc(Cl)c(N5CCC[C@]5(C)COc5ncccc5Cl)nc43)cn2)C1 [Example 622, (R)-6-chloro-7-(2-(((3-chloropyridin-2-yl)oxy)methyl)-2-methylpyrrolidin-1-yl)-1-(2-(3-(dimethylamino)azetidin-1-yl)pyrimidin-5-yl)-4-oxo-1,4-dihydro-1,8-naphthyridine-3-carboxylic acid] | 1000 to 10000 nM |
| CN(C)C1CN(c2ccc(-n3cc(C(=O)O)c(=O)c4cc(Cl)c(N5CCC[C@@H]5COc5nc(OC6CC6)ccc5Cl)cc43)cn2)C1 [Example 624, (R)-6-chloro-7-(2-(((3-chloro-6-cyclopropoxy-pyridin-2-yl)oxy)methyl)pyrrolidin-1-yl)-1-(6-(3-(dimethylamino)azetidin-1-yl)pyridin-3-yl)-4-oxo-1,4-dihydroquinoline-3-carboxylic acid] | ≤ 1000 nM |
| COc1ccc(Cl)c(OC[C@H]2CC(C)CN2c2cc3c(cc2Cl)c(=O)c(C(=O)O)cn3-c2ccc(N3CC(N(C)C)C3)nc2)n1 (stereo partly drawn) [Example 625, 6-chloro-7-((2R)-2-(((3-chloro-6-methoxypyridin-2-yl)oxy)methyl)-4-methylpyrrolidin-1-yl)-1-(6-(3-(dimethylamino)azetidin-1-yl)pyridin-3-yl)-4-oxo-1,4-dihydroquinoline-3-carboxylic acid] | ≤ 1000 nM |
| CN1CC(c2ccc(-n3cc(C(=O)O)c(=O)c4cc(Cl)c(N5CCC[C@@H]5COc5ncccc5Cl)cc43)cn2)C1 [Example 626, (R)-6-chloro-7-(2-(((3-chloropyridin-2-yl)oxy)methyl)pyrrolidin-1-yl)-1-(6-(1-methyl-azetidin-3-yl)pyridin-3-yl)-4-oxo-1,4-dihydroquinoline-3-carboxylic acid] | ≤ 1000 nM |
| COc1cnc(OC[C@H]2CCCN2c2cc3c(cc2Cl)c(=O)c(C(=O)O)cn3-c2ccc(N3CC(N(C)C)C3)nc2)c(Cl)c1 [Example 629, (R)-6-chloro-7-(2-(((3-chloro-5-methoxypyridin-2-yl)oxy)methyl)pyrrolidin-1-yl)-1-(6-(3-(dimethylamino)aztidin-1-yl)pyridin-3-yl)-4-oxo-1,4-dihydroquinoline-3-carboxylic acid] | ≤ 1000 nM |
| CN(C)C1CN(c2ccc(-n3cc(C(=O)O)c(=O)c4cc(F)c(N5CCC[C@@]5(C)COc5ncccc5Cl)nc43)cn2)C1 [Example 630, (S)-7-(2-(((3-chloropyridin-2-yl)oxy)methyl)-2-methylpyrrolidin-1-yl)-1-(6-(3-(dimethylamino)azetidin-1-yl)pyridin-3-yl)-6-fluoro-4-oxo-1,4-dihydro-1,8-naphthyridine-3-carboxylic acid] | ≤ 1000 nM |

The next lines start with the values.

| IC50 | Compound |
| --- | --- |
| ≤ 1000 nM | Nc1cc(-n2cc(C(=O)O)c(=O)c3cc(Cl)c(N4CCC[C@@H]4COc4ncccc4Cl)cc32)cnn1 [Example 617, (R)-1-(6-aminopyridazin-4-yl)-6-chloro-7-(2-(((3-chloropyridin-2-yl)oxy)methyl)pyrrolidin-1-yl)-4-oxo-1,4-dihydroquinoline-3-carboxylic acid] |
| ≤ 1000 nM | CN(C)C1CN(c2ccc(-n3cc(C(=O)O)c(=O)c4cc(F)c(N5CCC[C@]5(C)COc5ncccc5Cl)nc43)cn2)C1 [Example 620, (R)-7-(2-(((3-chloropyridin-2-yl)oxy)methyl)-2-methylpyrrolidin-1-yl)-1-(6-(3-(dimethylamino)azetidin-1-yl)pyridin-3-yl)-6-fluoro-4-oxo-1,4-dihydro-1,8-naphthyridine-3-carboxylic acid] |
| ≤ 1000 nM | O=C(O)c1cn(-c2ccc3c(c2)CS(=O)(=O)N3)c2cc(N3CCC[C@@H]3COc3ncccc3Cl)c(Cl)cc2c1=O [Example 621, (R)-6-chloro-7-(2-(((3-chloropyridin-2-yl)oxy)methyl)pyrrolidin-1-yl)-1-(2,2-dioxido-1,3-dihydrobenzo[c]isothiazol-5-yl)-4-oxo-1,4-dihydroquinoline-3-carboxylic acid] |
| ≤ 1000 nM | CN(C)C1CN(c2ncc(-n3cc(C(=O)O)c(=O)c4cc(Cl)c(N5CCC[C@@]5(C)COc5ncccc5Cl)nc43)cn2)C1 [Example 623, (S)-6-chloro-7-(2-(((3-chloropyridin-2-yl)oxy)methyl)-2-methylpyrrolidin-1-yl)-1-(2-(3-(dimethylamino)azetidin-1-yl)pyrimidin-5-yl)-4-oxo-1,4-dihydro-1,8-naphthyridine-3-carboxylic acid] |
| ≤ 1000 nM | CN(C)C1CN(c2ccc(-n3cc(C(=O)O)c(=O)c4cc(Cl)c(N5CCC[C@]5(C)COc5ncccc5Cl)cc43)cn2)C1 [Example 627, (R)-6-chloro-7-(2-(((3-chloropyridin-2-yl)oxy)methyl)-2-methylpyrrolidin-1-yl)-1-(6-(3-(dimethylamino)azetidin-1-yl)pyridin-3-yl)-4-oxo-1,4-dihydroquinoline-3-carboxylic acid] |
| ≤ 1000 nM | CN(C)C1CN(c2ccc(-n3cc(C(=O)O)c(=O)c4cc(Cl)c(N5C6CC6C[C@@H]5COc5ncccc5Cl)cc43)cn2)C1 (stereo partly drawn) [Example 628, 6-chloro-7-((3R)-3-(((3-chloropyridin-2-yl)oxy)methyl)-2-azabicyclo[3.1.0]hexan-2-yl)-1-(6-(3-(dimethylamino)azetidin-1-yl)pyridin-3-yl)-4-oxo-1,4-dihydroquinoline-3-carboxylic acid] |
| ≤ 1000 nM | [N-]=[N+]=Nc1ccc(-n2cc(C(=O)O)c(=O)c3cc(Cl)c(N4CCC[C@@H]4COc4ncccc4Cl)cc32)cn1 [Example 631, (R)-1-(6-azidopyridin-3-yl)-6-chloro-7-(2-(((3-chloropyridin-2-yl)oxy)methyl)pyrrolidin-1-yl)-4-oxo-1,4-dihydroquinoline-3-carboxylic acid] |
